The values below are quoted from earlier work in US20130202706A1 (DRUGGABILITY TECHNOLOGIES IP HOLDCO (JERSEY) LTD., priority 2010, published 2013).

For this series the following is noted: oral administration.

As for `CC(C)c1c(C(=O)Nc2ccccc2)c(-c2ccccc2)c(-c2ccc(F)cc2)n1CC[C@@H](O)C[C@@H](O)CC(=O)O` [Atorvastatin], the “systemic availability of HMG-CoA reductase inhibitory activity” value is recorded as “approximately 30%”.
